Experimental data: patent US10039845B2, “Labeled inhibitors of prostate specific membrane antigen (PSMA) biological evaluation, and use of imaging agents” (THE JOHNS HOPKINS UNIVERSITY, priority 2007, dated 2018)

Assays:
PSMA = target: T1, PSMA (Homo sapiens, UniProt Q04609); assay: NAALADase assay (NAAG hydrolysis, LNCaP cell extracts); assay type: biochemical
T1 construct: LNCaP cell extracts were prepared by sonication in NAALADase buffer; endogenous in cells; host or cells: LNCaP cell extract (sonicated in 50 mM Tris pH 7.4, 0.5% Triton X-100)
Protocol: The relative binding affinities of L1-L7 and ReL1-ReL7, were determined using the N-acetylated-α-linked acidic dipeptidase (NAALADase) assay as previously described.
NAAG hydrolysis was performed essentially as described previously (Robinson, M. B.; et al. J Biol Chem 1987, 262, 14498-14506; Lupold, S. E.; et al. Cancer Res 2002, 62, 4029-4033.). In short, LNCaP cell extracts were prepared by sonication in NAALADase buffer [50 mM Tris (pH 7.4) and 0.5% Triton X-100]. Cell lysates were incubated with or without inhibitor at 37° C. for 10 minutes. Following the incubation the radiolabeled substrate N-acetyl-L-aspartyl-L-(3,4-^3H)glutamate (NEN Life Science Products, Boston, Mass.) was added to a final concentration of 30 nM at 37° C. for 10-15 min. The reaction was stopped by the addition of an equal volume of ice-cold 100 mM sodium phosphate and 2 mM EDTA. Products were partitioned by AG 1-X8 formate resin (Bio-Rad Laboratories) anion exchange chromatography, eluted with 1 M sodium formate, and quantified by liquid scintillation counting. […] Assays were performed in triplicate with the entire inhibition study being repeated at least once to confirm affinity and mode of inhibition. Data were collected during linear phase of hydrolysis (i.e., <20% cleavage of total substrate). Enzyme inhibitory constants (Ki values) were generated using the Cheng-Prusoff conversion (Cheng, Y.; Prusoff, W. H. Biochem Pharmcol 1973, 22, 3099-3108).

PSMA+ PC3 PIP cells = assay: In vitro fluorescence microscopy in PC3 PIP and PC3 flu cells; assay type: cell-based, human; details: excitation 494 nm, emission 628 nm, 1 h incubation
Protocol: Coordination of the bisquinoline moiety of L2 with Re(CO)3 renders this complex fluorescent. Accordingly, microscopy was performed using ReL2 in live cells (FIG. 2). […] The mechanism of internalization of PSMA has been studied previously, however only antibodies and antibody conjugates have been used, rather than small molecules (Rajasekaran, S. A.; et al. Mol Biol Cell 2003, 14, 4835-4845; Moffatt, S.; et al. Gene Ther 2006, 13, 761-772).
Following fresh preparation of ReL2, 10,000 PC3 PIP and PC3 flu cells were seeded separately into each of four wells of a Lab-Tek II 8-well chamber slide (Fisher Scientific). The cells were cultured as described above and were allowed to attach to the bottom of the wells overnight at 37° C. in 5% CO2 in air. […] The cells were then returned to the incubator for one hour to enable binding. Each well was then carefully washed by removing the supernatant followed by addition of warm culture media for 30 seconds. The wash media was then removed and added to the contents of the well chambers. Dako Cytomation mounting medium was then applied and a glass coverslip was added. The mounting medium was allowed to dry at ambient temperature for 20 min prior to storage of the slide at 4° C. overnight. The cells were then viewed using an Olympus BX61 fluorescence microscope equipped with a Semrock DAPI/FITC/Texas Red triple filter cube.

LNCaP (PSMA+) tumor = assay: In vivo binding specificity (blocking) study, SPECT-CT; set-up: species or system mice; details: LNCaP tumor bearing animal, PMPA 50 mg/kg (1 mg), images 30-60 min postinjection
Protocol: SPECT-CT imaging was then performed as described above, with both animals on the scanner gantry.

T1 sequence (Q04609 whole entry): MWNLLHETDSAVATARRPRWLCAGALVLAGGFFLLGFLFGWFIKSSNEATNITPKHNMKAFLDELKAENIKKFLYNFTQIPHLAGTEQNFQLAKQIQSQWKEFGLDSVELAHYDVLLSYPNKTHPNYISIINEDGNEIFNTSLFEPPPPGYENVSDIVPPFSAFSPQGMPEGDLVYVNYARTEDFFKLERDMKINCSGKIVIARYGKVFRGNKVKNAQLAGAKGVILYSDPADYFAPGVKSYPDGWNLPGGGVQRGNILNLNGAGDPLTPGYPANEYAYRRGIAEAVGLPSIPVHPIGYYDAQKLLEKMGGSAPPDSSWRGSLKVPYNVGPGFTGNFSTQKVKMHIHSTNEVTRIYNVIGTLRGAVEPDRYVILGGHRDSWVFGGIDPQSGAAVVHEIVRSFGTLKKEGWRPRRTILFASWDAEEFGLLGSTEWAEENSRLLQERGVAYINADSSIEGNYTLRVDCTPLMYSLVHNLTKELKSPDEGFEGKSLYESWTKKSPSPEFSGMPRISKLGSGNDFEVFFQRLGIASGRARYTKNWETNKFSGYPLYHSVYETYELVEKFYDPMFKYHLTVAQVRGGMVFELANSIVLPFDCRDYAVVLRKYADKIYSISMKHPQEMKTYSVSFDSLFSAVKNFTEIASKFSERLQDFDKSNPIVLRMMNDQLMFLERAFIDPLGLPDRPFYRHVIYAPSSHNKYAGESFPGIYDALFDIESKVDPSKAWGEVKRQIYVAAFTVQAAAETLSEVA

## O=C(O)CCC(NC(=O)NC(CCCCNC(=O)CCCCCCC(=O)NC(CCCCN(Cc1ccc2ccccc2n1)Cc1ccc2ccccc2n1)C(=O)O)C(=O)O)C(=O)O.[Br-].[C-]#[O+].[C-]#[O+].[C-]#[O+].[Re+] (stereo not drawn) [ReL2, Tricarbonyl(2-[3-(5-{7-[5-(bis-quinolin-2-ylmethyl-amino)-1-carboxy-pentylcarbamoyl]-heptanoylamino}-1-carboxy-pentyl)-ureido]-pentanedioic acid) rhenium bromide]
PSMA; LNCaP cell extracts, Cheng-Prusoff conversion, read-out: Ki (PSMA inhibitory activity)
  Ki: 500 pM
PSMA; relative to ReL1
  fold higher PSMA inhibitory activity than ReL1: 20 fold
PSMA+ PC3 PIP cells
  fluorescent signal in live cells (internalization): weak but observable fluorescent signal from within the PSMA+ PC3 PIP cells

## O=C(O)CCC(CP(=O)(O)O)C(=O)O (stereo not shown) [PMPA, 2-(phosphonomethyl)pentanedioic acid]
LNCaP (PSMA+) tumor
  blockade of [^99mTc]L1 binding to tumor and renal cortex: capable of eliminating binding of [^99mTc]L1
